Where two headings read alike, the source gives them in different places. No end group written: not given here.
Test: Pharmacokinetic study of AWRK6 in rats after intraperitoneal or intravenous injection, plasma LC-MS/MS
Format: in vivo, rat
Conditions: for AUC(0-inf) / Cmax / Tmax / CL/F / MRT / Vd/F / half-life / AUC(0-t) / bioavailability: rat; for CL/F: read-out: CLz/F (converted); for MRT: read-out: MRT(0–t); for Vd/F: read-out: Vz/F; for half-life: read-out: t1/2z (converted); for bioavailability: from AUC, read-out: F (absolute bioavailability)
Experimental: The samples were analyzed on a LC-MS/MS system consisting of an Agilent 1290 Infinity II UHPLC System coupled with an Agilent 6460 Triple Quadrupole Mass Spectrometer with an electrospray ionisation source (ESI). The Agilent MassHunter Workstation Qualitative Analysis B.06.00 (Agilent Technologies, Santa Clara, CA, USA) software was used. Chromatographic separation was performed on a Supersil ODS2 column (4.6 mm × 250 mm, 5 μm, Dalian Elite Analytical Instruments, Dalian, China). The separation conditions were 30 °C by using a FA-ACN (0.1:99.9, v/v, A) and FA-water (0.1:99.9, v/v, B) solutions at a flow rate of 0.5 mL/min. The sample injection volume was 20 μL and the autosampler was kept at 4 °C. The initial eluent A-B (20:80, v/v) was changed to A-B (30:70, v/v) in 4 min and subsequently changed to A-B (90:10, v/v) in the next 3 min in a linear gradient form and maintained at this ratio for another 1 min. PMB was used as the IS. MS analysis was carried out in the multiple reaction monitoring (MRM) mode with following operation parameters: capillary voltage, 3.5 kV; gas temperature, 325 °C; nebulizer gas pressure, 35 psi; sheath gas, 11 L/min, 350 °C; fragmentor voltages, 155 V for AWRK6 and 75 V for IS; collision energy (CE), 80 eV for AWRK6 and 40 eV for IS; precursor-to-product ion transition, m/z: 533.3→84.1 for AWRK6 and m/z: 402.1→101.1 for IS.
The AWRK6 and IS were dissolved in water at 1.0 mg/mL for stock solution. The AWRK6 calibration standards at 0.05, 0.1, 0.5, 1, 2, 5, and 10 μg/mL were prepared by mixing 50 μL of working solution and 100 μL of blank plasma individually. QC samples of AWRK6 at 0.1, 0.5, and 5 μg/mL were prepared by the same method. The thawed plasma samples (100 μL) were mixed with 50 μL water (or QC), 50 μL IS (1 μg/mL), and 20 μL FA-water (25:75, v/v). A combination of plasma precipitation and liquid–liquid extraction was applied for the extraction of AWRK6 in samples. After adding 200 μL methanol and 100 μL dichloromethane, the mixtures were vortexed for 30 s and centrifuged at 14,000 g for 10 min. The supernatant was filtered by 0.22 μm membrane for LC-MS/MS analysis.
SPF-grade male Sprague Dawley rats (280–320 g, 8 weeks old) were purchased from Liaoning Changsheng Biotechology (Liaoning, China). The rats were housed under a controlled environment (temperature: 25 ± 2 °C; relative humidity: 55 ± 10%; alternating natural light/dark cycles) with free access to food and water unless otherwise noted. The study was approved by the Laboratory Animal Welfare and Ethical Review Board of China Medical University (CMU2019089, 8 March 2019). According to the previous study, the rats was administrated with AWRK6 dissolved in saline intraperitoneally at 2.35, 4.7, and 9.4 mg/kg bodyweight and intravenously at 4.7 mg/kg after being fasted for 12 h. The intravenous doing was administered via the tail vein of the rats. Blood samples were collected from orbital venous plexus at 0.083, 0.167, 0.25, 0.5, 1, 1.5, 2, 3, 4, 6, 8, and 10 h using heparin tubes after administration, followed by centrifugation at 4000 g for 10 min at 4 °C and storage at −80 °C. The obtained data were analyzed using DAS 2.0 software (Anhui Provincial Center for Drug Clinical Evaluation). The absolute bioavailability of AWRK6 for intraperitoneal administration was calculated by the following formula:(1) F=AUCi.p.×Di.v./Di.p.×AUCi.v.×100%

[1] = male Sprague Dawley rats, single i.v. 4.700 mg/kg (tail vein), plasma, LC-MS/MS, mean ± SD, n = 6
[2] = ip, 2.35 mg/kg, male Sprague Dawley rats, single i.p. 2.350 mg/kg, plasma, LC-MS/MS, mean ± SD, n = 6
[3] = ip, 4.7 mg/kg, male Sprague Dawley rats, single i.p. 4.700 mg/kg, plasma, LC-MS/MS, mean ± SD, n = 6
[4] = ip, 9.4 mg/kg, male Sprague Dawley rats, single i.p. 9.400 mg/kg, plasma, LC-MS/MS, mean ± SD, n = 6
[5] = iv, 4.7 mg/kg, male Sprague Dawley rats, single i.v. 4.700 mg/kg (tail vein), plasma, LC-MS/MS, mean ± SD, n = 6
[6] = rats, two-compartment model, weight coefficient of 1, DAS 2.0

SWVGKHGKKFGLKKHKKH-NH2 (C-terminus assumed) [AWRK6]
VRT(0–t) (male Sprague Dawley rats, single i.p. 2.350 mg/kg, plasma, LC-MS/MS, mean ± SD, n = 6): 2.549 ± 1.480 h^2 | VRT(0–t) (male Sprague Dawley rats, single i.p. 4.700 mg/kg, plasma, LC-MS/MS, mean ± SD, n = 6): 3.859 ± 0.904 h^2 | VRT(0–t) (male Sprague Dawley rats, single i.p. 9.400 mg/kg, plasma, LC-MS/MS, mean ± SD, n = 6): 4.366 ± 1.439 h^2 | CLz/F [1]: 28.32 ± 3.65 mL/min/kg | Vz/F [1]: 4.884 ± 1.736 L/kg | AUC(0-inf) [2]: 851 ± 221 ng·h/mL | Cmax [2]: 217 ± 10 ng/mL | Tmax [2]: 1.17 ± 0.258 h | CL/F [2]: 48 mL/min/kg | MRT [2]: 2.26 ± 0.488 h | Vd/F [2]: 10.9 ± 3.96 L/kg | half-life [2]: 2.95 ± 2.05 h | AUC(0-inf) [3]: 1590 ± 275 ng·h/mL | AUC(0-t) [3]: 1360 ± 176 ng·h/mL | Cmax [3]: 454 ± 48 ng/mL | Tmax [3]: 1.25 ± 0.274 h | CL/F [3]: 50.6 mL/min/kg | MRT [3]: 2.49 ± 0.227 h | Vd/F [3]: 12.3 ± 4.85 L/kg | half-life [3]: 2.94 ± 1.4 h | AUC(0-inf) [4]: 2910 ± 356 ng·h/mL | AUC(0-t) [4]: 2630 ± 236 ng·h/mL | Cmax [4]: 888 ± 46 ng/mL | Tmax [4]: 1.21 ± 0.217 h | CL/F [4]: 54.4 mL/min/kg | MRT [4]: 2.52 ± 0.292 h | Vd/F [4]: 12.7 ± 3.37 L/kg | half-life [4]: 2.78 ± 1.02 h | AUC(0-inf) [5]: 2800 ± 333 ng·h/mL | AUC(0-t) [5]: 2600 ± 277 ng·h/mL | Cmax [5]: 2130 ± 174 ng/mL | MRT [5]: 1.73 ± 0.261 h | half-life [5]: 1.98 ± 0.583 h | bioavailability (plasma, ip, 2.35 mg/kg, male Sprague Dawley rats, i.p. 2.350 mg/kg versus i.v. 4.700 mg/kg): 48.8% | bioavailability (plasma, ip, 4.7 mg/kg, male Sprague Dawley rats, i.p. 4.700 mg/kg versus i.v. 4.700 mg/kg): 52.5% | bioavailability (plasma, ip, 9.4 mg/kg, male Sprague Dawley rats, i.p. 9.400 mg/kg versus i.v. 4.700 mg/kg): 50.6% | time after which plasma concentration was below the LLOQ (rats, after intraperitoneal injection, LLOQ 0.050 μg/mL): ~10 h | time at which AWRK6 in plasma was cleared (rats, after intravenous injection 4.7 mg/kg): about 10 h | time at which AWRK6 concentrations in rat plasma peaked (rats, intraperitoneal injections at 2.35, 4.7 and 9.4 mg/kg bodyweight): about 1.2 h | transport rate constant K12 [6]: 2.55 h⁻¹ | transport rate constant K21 [6]: 1.67 h⁻¹
